One may read the IC50 as the concentration that inhibits the measured activity by half. High values mean a need for much substance, low ones inhibition by little substance.

The target in this test is Human HDAC6 (Homo sapiens (Human), UniProt Q9UBN7). The experiment in a line: HDAC6 enzymatic activity assay (Caliper endpoint or fluorogenic format). As to conditions: in vitro enzymatic. The class given is biochemical.
Chain of Human HDAC6 (Q9UBN7 whole entry): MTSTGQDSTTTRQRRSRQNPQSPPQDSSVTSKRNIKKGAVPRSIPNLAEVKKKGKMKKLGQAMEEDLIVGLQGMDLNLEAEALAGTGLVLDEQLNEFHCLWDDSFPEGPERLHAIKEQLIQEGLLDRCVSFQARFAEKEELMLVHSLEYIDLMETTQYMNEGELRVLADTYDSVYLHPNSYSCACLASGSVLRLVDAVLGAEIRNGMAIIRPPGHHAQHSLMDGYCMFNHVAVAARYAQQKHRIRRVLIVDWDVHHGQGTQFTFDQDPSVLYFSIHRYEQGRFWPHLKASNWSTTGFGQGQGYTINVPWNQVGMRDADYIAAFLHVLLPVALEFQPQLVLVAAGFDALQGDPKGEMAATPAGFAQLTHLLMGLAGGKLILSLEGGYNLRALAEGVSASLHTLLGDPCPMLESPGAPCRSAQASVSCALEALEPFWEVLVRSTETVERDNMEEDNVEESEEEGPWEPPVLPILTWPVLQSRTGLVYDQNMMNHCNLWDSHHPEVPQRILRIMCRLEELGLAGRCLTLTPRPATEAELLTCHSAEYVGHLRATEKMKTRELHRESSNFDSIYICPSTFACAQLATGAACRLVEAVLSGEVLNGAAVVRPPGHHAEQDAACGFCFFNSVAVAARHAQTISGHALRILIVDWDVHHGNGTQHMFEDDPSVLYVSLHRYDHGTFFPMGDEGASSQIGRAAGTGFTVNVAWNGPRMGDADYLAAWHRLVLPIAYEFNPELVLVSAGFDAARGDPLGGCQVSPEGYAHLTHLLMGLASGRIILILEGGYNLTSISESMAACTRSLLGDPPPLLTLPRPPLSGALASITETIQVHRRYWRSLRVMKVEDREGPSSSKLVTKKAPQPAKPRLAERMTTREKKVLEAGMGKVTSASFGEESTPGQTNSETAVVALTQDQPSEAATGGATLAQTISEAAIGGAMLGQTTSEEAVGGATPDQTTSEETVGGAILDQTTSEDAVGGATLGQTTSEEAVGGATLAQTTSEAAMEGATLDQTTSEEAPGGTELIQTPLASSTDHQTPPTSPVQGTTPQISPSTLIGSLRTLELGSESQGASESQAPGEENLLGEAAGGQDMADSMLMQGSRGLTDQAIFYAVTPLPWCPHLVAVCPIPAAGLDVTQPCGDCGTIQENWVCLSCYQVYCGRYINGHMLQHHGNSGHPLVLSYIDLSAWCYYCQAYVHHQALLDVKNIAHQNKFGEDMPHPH

For `Fc1cc(-c2nnc(C(F)F)o2)cnc1COc1ccc2cnccc2c1` [Compound 155], the IC50 lay in the range of 1 to 100 nM.
For `FC(F)c1nnc(-c2ccc(COCC3CC4CCC(C3)N4)nc2)o1` (stereo not shown) [Compound 23], the half-maximal inhibitory concentration (IC50) was 100 to 1000 nM.
For the molecule `FC(F)c1nnc(-c2cnc(COc3ccc4cnccc4c3)nc2)o1` [Compound 154], the IC50 was in the range of 1 to 100 nM.
`Fc1cc(-c2nnc(C(F)F)o2)cnc1COc1ccc2ncccc2c1` [Compound 153]: the half-maximal inhibitory concentration (IC50) lay within 1 to 100 nM.
`FC(F)c1nnc(-c2ccc(COc3ncco3)nc2)o1` [Compound 100] returned an IC50 of 100 to 1000 nM.
In turn, `Cn1nccc1-c1ccc(OCc2ccc(-c3nnc(C(F)F)o3)cn2)cc1` [Compound 199, 2-(Difluoromethyl)-5-(6-((4-(1-methyl-1H-pyrazol-5-yl)phenoxy)methyl)pyridin-3-yl)-1,3,4-oxadiazole] came in with a half-inhibitory concentration (IC50) of 1 to 100 nM.
For the molecule `FC(F)c1nnc(-c2cnc(COc3cccc4nccnc34)nc2)o1` [Compound 158], the concentration for half-maximal inhibition (IC50) was in the range of 1 to 100 nM.
The molecule `N#Cc1ccccc1OCc1ncc(-c2nnc(C(F)F)o2)cc1F` [Compound 127] gave an IC50 of 1 to 100 nM.
The molecule `FC(F)c1nnc(-c2ccc(COc3ccnc(Cl)c3)nc2)o1` [Compound 189, 2-(6-(((2-Chloropyridin-4-yl)oxy)methyl)pyridin-3-yl)-5-(difluoromethyl)-1,3,4-oxadiazole] yielded a half-inhibitory concentration (IC50) of 1 to 100 nM.
As for `FC(F)c1nnc(-c2ccc(CO[C@@H]3C[C@H]4CC[C@@H](C3)O4)nc2)o1` [Compound 110], the figure is 100 to 1000 nM; as for `N#Cc1ccc(COCc2ccc(-c3nnc(C(F)F)o3)cn2)s1` [Compound 120], 100 to 1000 nM.
As for `Fc1ccc(OCc2ncc(-c3nnc(C(F)F)o3)cc2F)cc1F` [Compound 129], the figure is 1 to 100 nM.
As for `Fc1cc(-c2nnc(C(F)F)o2)cnc1COc1cccc2cncnc12` [Compound 161], the half-inhibitory concentration (IC50) fell in the range of 1 to 100 nM.
Regarding `Cn1ncc2cc(OCc3ncc(-c4nnc(C(F)F)o4)cn3)ccc21` [Compound 138], the half-inhibitory concentration (IC50) was in the range of 1 to 100 nM.
Take `Cc1nc2cc(OCc3ncc(-c4nnc(C(F)F)o4)cn3)ccc2o1` [Compound 140]: the IC50 lay within 1 to 100 nM.
Take `Cn1cnc2cc(OCc3ncc(-c4nnc(C(F)F)o4)cn3)ccc21` [Compound 146]: the 50% inhibitory concentration (IC50) lay within 1 to 100 nM.
In the case of `C#Cc1ccccc1OCc1ncc(-c2nnc(C(F)F)o2)cn1` [Compound 168], the IC50 lay within 1 to 100 nM.
Take `Cn1cnc2c(OCc3ccc(-c4nnc(C(F)F)o4)cn3)cccc21` [Compound 208]: the IC50 lay in the range of 1 to 100 nM.
`FC(F)c1nnc(-c2cnc(COc3cccc4cncnc34)nc2)o1` [Compound 160] registered an IC50 of 1 to 100 nM.
In turn, `Fc1cc(-c2nnc(C(F)F)o2)cnc1COc1cccc2ccncc12` [Compound 126] gave a 50% inhibitory concentration (IC50) of 1 to 100 nM.
As for `FC(F)c1nnc(-c2ccc(COc3ccc(-c4nc5ccccc5[nH]4)cc3)nc2)o1` [Compound 207], the IC50 lay in the range of 1 to 100 nM.
`FC(F)c1nnc(-c2ccc(COc3ncccn3)nc2)o1` [Compound 78] gave an IC50 of 100 to 1000 nM.
Take `N#Cc1cccc(OCc2ncc(-c3nnc(C(F)F)o3)cc2F)c1` [Compound 167]: the IC50 lay in the range of 1 to 100 nM.
Take `Fc1cc(-c2nnc(C(F)F)o2)cnc1COc1ccc2ncncc2c1` [Compound 181, 2-(Difluoromethyl)-5-(5-fluoro-6-((quinazolin-6-yloxy)methyl)pyridin-3-yl)-1,3,4-oxadiazole]: the IC50 fell in the range of 1 to 100 nM.
For `FC(F)c1nnc(-c2cnc(COc3ccc4ncccc4c3)nc2)o1` [Compound 152], the IC50 was in the range of 1 to 100 nM.
Then `FC(F)c1nnc(-c2cnc(COc3ccc4ocnc4c3)nc2)o1` [Compound 142], with 1 to 100 nM; and `Cc1nc2ccc(OCc3ccc(-c4nnc(C(F)F)o4)cn3)cc2o1` [Compound 38], with 1 to 100 nM; and `Fc1cc(-c2nnc(C(F)F)o2)cnc1COc1ccc2ccncc2c1` [Compound 157], with 1 to 100 nM.
`CN1C[C@@]2(COCc3ccc(-c4nnc(C(F)F)o4)cn3)C[C@@H]1CO2` [Compound 25] registered an IC50 of 100 to 1000 nM.
Turning to `FC(F)c1nnc(-c2ccc(C(F)(F)Oc3cccc4ccccc34)nc2)o1` [Compound 14, 2-(6-(difluoro(naphthalen-1-yloxy)methyl)pyridin-3-yl)-5-(difluoromethyl)-1,3,4-oxadiazole], the IC50 was 100 to 1000 nM.
The molecule `Cc1noc2cc(OCc3ncc(-c4nnc(C(F)F)o4)cc3F)ccc12` [Compound 137, 6-((5-(5-(difluoromethyl)-1,3,4-oxadiazol-2-yl)-3-fluoropyridin-2-yl)methoxy)-3-methylbenzo[d]isoxazole] showed an IC50 of 1 to 100 nM.
The molecule `FC(F)c1nnc(-c2cnc(COc3cccnc3)nc2)o1` [Compound 162] gave an IC50 of 1 to 100 nM.
Turning to `FC(F)c1nnc(-c2ccc(COc3ccc4c(c3)CCNC4)nc2)o1` [Compound 170], the IC50 is 100 to 1000 nM.
Take `FC(F)c1nnc(-c2ccc(COc3nnc4ccccn34)nc2)o1` [Compound 87]: the half-inhibitory concentration (IC50) fell in the range of 1 to 100 nM.
`FC(F)c1nnc(-c2ccc(COc3ccncn3)nc2)o1` [Compound 104] yielded an IC50 of 1 to 100 nM.
Take `Cn1c(-c2ccc(OCc3ccc(-c4nnc(C(F)F)o4)cn3)cc2)nc2ccccc21` [Compound 200]: the 50% inhibitory concentration (IC50) was in the range of 1 to 100 nM.
Consider `Cc1ncc(F)c(OCc2ccc(-c3nnc(C(F)F)o3)cn2)n1` [Compound 81], for which the IC50 lay within 1 to 100 nM.
Regarding `FC(F)c1nnc(-c2ccc(COc3cccnn3)nc2)o1` [Compound 103], the IC50 was 100 to 1000 nM.
Then `Fc1ccc(OCc2ncc(-c3nnc(C(F)F)o3)cn2)cc1F` [Compound 22], with 1 to 100 nM.
As for `FC(F)c1nnc(-c2cnc(COc3ccc4ccncc4c3)nc2)o1` [Compound 156], the IC50 lay in the range of 1 to 100 nM.
Then `FC(F)c1nnc(-c2ccc(COC3CC4CCC(C3)O4)nc2)o1` (stereo not shown) [Compound 109], with 100 to 1000 nM.
Consider `Cn1c(-c2cccc(OCc3ccc(-c4nnc(C(F)F)o4)cn3)c2)nc2ccccc21` [Compound 201], for which the 50% inhibitory concentration (IC50) was 1 to 100 nM.
On to `Fc1cc(-c2nnc(C(F)F)o2)cnc1COc1cccc2nccnc12` [Compound 159], for which the concentration for half-maximal inhibition (IC50) is 1 to 100 nM.
`Cn1cnc2cc(OCc3ncc(-c4nnc(C(F)F)o4)cc3F)ccc21` [Compound 147] gave a half-maximal inhibitory concentration (IC50) of 1 to 100 nM.
The molecule `CN1CCc2cc(OCc3ccc(-c4nnc(C(F)F)o4)cn3)ccc2C1` [Compound 121] gave an IC50 of 100 to 1000 nM.
`CN1[C@@H]2CC[C@H]1C[C@H](OCc1ccc(-c3nnc(C(F)F)o3)cn1)C2` [Compound 113] yielded a half-inhibitory concentration (IC50) of 1000 to 10000 nM.
As for `FC(F)c1nnc(-c2ccc(COc3ccccc3-c3ccccc3)nc2)o1` [Compound 187, 2-(6-(([1,1′-biphenyl]-2-yloxy)methyl)pyridin-3-yl)-5-(difluoromethyl)-1,3,4-oxadiazole], the IC50 lay in the range of 1000 to 10000 nM.
As for `Fc1cc(-c2nnc(C(F)F)o2)cnc1COc1ccc2cncnc2c1` [Compound 180, 2-(difluoromethyl)-5-(5-fluoro-6-((quinazolin-7-yloxy)methyl)pyridin-3-yl)-1,3,4-oxadiazole], the figure is 1 to 100 nM.
Regarding `FC(F)c1nnc(-c2ccc(COc3cccc(-c4nc5ccccc5[nH]4)c3)nc2)o1` [Compound 206], the IC50 is 1 to 100 nM.
As for `Cc1nc2cc(OCc3ncc(-c4nnc(C(F)F)o4)cc3F)ccc2o1` [Compound 141], the figure is 1 to 100 nM; as for `Cn1ccc(OCc2ccc(-c3nnc(C(F)F)o3)cn2)n1` [Compound 66], 1 to 100 nM; as for `FC(F)c1nnc(-c2ccc(COc3ccc(C(F)(F)F)cn3)nc2)o1` [Compound 94], 100 to 1000 nM.
As for `FC(F)c1nnc(-c2cnc(COc3ccc4nccnc4c3)nc2)o1` [Compound 150], the half-inhibitory concentration (IC50) lay within 1 to 100 nM.
Consider `Fc1cc(-c2nnc(C(F)F)o2)cnc1COc1cccc2cnccc12` [Compound 125], for which the IC50 lay within 1 to 100 nM.
Consider `Cc1ccc2ncnc(OCc3ccc(-c4nnc(C(F)F)o4)cn3)c2c1` [Compound 95], for which the half-maximal inhibitory concentration (IC50) was 1 to 100 nM.
In turn, `Cc1noc2cc(OCc3ncc(-c4nnc(C(F)F)o4)cn3)ccc12` [Compound 136] registered a 50% inhibitory concentration (IC50) of 1 to 100 nM.
Consider `FC(F)c1nnc(-c2ccc(COc3cccc(-c4ccccc4)c3)nc2)o1` [Compound 188, 2-(6-(([1,1′-Biphenyl]-3-yloxy)methyl)pyridin-3-yl)-5-(difluoromethyl)-1,3,4-oxadiazole], for which the 50% inhibitory concentration (IC50) lay in the range of 100 to 1000 nM.
Then `Fc1cc(-c2nnc(C(F)F)o2)cnc1COc1cccn2ccnc12` [Compound 123], with 1 to 100 nM.
Then `Cc1ccc2nnc(OCc3ccc(-c4nnc(C(F)F)o4)cn3)n2c1` [Compound 89], with 1 to 100 nM; and `C#Cc1cccc(OCc2ncc(-c3nnc(C(F)F)o3)cc2F)c1` [Compound 128], with 1 to 100 nM.
Then `FC(F)c1nnc(-c2ccc(COc3ncnc4cc(Cl)ccc34)nc2)o1` [Compound 98], with 1 to 100 nM; and `FC(F)c1nnc(-c2ccc(COc3cccc4ccncc34)nc2)o1` [Compound 33], with 1 to 100 nM; and `CC(Oc1ccc(F)cc1)c1ccc(-c2nnc(C(F)F)o2)cn1` (stereo not shown) [AAA, 2-(Difluoromethyl)-5-(6-(1-(4-fluorophenoxy)ethyl)pyridin-3-yl)-1,3,4-oxadiazole], with 1000 to 10000 nM.
`Cn1ncc2cc(OCc3ncc(-c4nnc(C(F)F)o4)cc3F)ccc21` [Compound 139, 2-(difluoromethyl)-5-(5-fluoro-6-(((1-methyl-1H-indazol-5-yl)oxy)methyl)pyridin-3-yl)-1,3,4-oxadiazole] displayed a concentration for half-maximal inhibition (IC50) of 1 to 100 nM.
In the case of `Fc1cc(-c2nnc(C(F)F)o2)cnc1COc1cccc2ncncc12` [Compound 179, 2-(Difluoromethyl)-5-(5-fluoro-6-((quinazolin-5-yloxy)methyl)pyridin-3-yl)-1,3,4-oxadiazole], the half-inhibitory concentration (IC50) is 1 to 100 nM.
`FC(F)c1nnc(-c2ccc(COc3cnc(C(F)(F)F)nc3)nc2)o1` [Compound 205] returned an IC50 of 1 to 100 nM.
In the case of `Cn1ccnc1OCc1ccc(-c2nnc(C(F)F)o2)cn1` [Compound 105], the IC50 lay within 100 to 1000 nM.
Turning to `Cn1cnc2ccc(OCc3ccc(-c4nnc(C(F)F)o4)cn3)cc21` [Compound 213], the IC50 fell in the range of 1 to 100 nM.
Molecule `Fc1ccc(OCc2ncc(-c3nnc(C(F)F)o3)cc2F)c(F)c1` [Compound 131] displayed an IC50 of 1 to 100 nM.
Then `Fc1cc(-c2nnc(C(F)F)o2)cnc1COc1cccc2ncccc12` [Compound 132], with 1 to 100 nM.

Source of the values: patent US20230322747A1, “OXADIAZOLE HDAC6 INHIBITORS AND USES THEREOF” (Eikonizo Therapeutics, Inc., priority 2022, published 2023).
